c1cc2c3c(cccc3c1)CC2
solubility (mole fraction)
Details | in acetone | in benzene | in isobutanol | in m-xylene | in n-propanol
283 K | 0.0417 | 0.118 | 0.00926 | 0.109 | 0.00879
288 K | 0.0491 | 0.131 | – | 0.129 | –
288.1 K | – | – | 0.0128 | – | 0.012
293 K | 0.0587 | – | – | 0.143 | –
293.2 K | – | 0.142 | 0.0162 | – | 0.0144
298 K | 0.0692 | 0.162 | 0.0205 | 0.163 | 0.0175
303 K | 0.0788 | 0.187 | – | – | –
303.1 K | – | – | – | 0.188 | –
303.3 K | – | – | 0.0253 | – | 0.0208
308 K | – | – | 0.0297 | – | 0.0246
308.1 K | 0.0954 | – | – | – | –
308.2 K | – | – | – | 0.216 | –
308.3 K | – | 0.215 | – | – | –
313 K | 0.113 | 0.244 | – | 0.245 | –
313.1 K | – | – | 0.0353 | – | 0.0295
318 K | 0.136 | 0.277 | 0.0435 | 0.281 | 0.0364
323 K | 0.173 | 0.312 | 0.0565 | 0.321 | 0.0464

— BigSolDB 2.1
